Experimental data reported in patent publication US8623429B2, “Stabilized anthocyanin compositions” (Omnica GmbH, priority 2007, dated 2014).

What was measured:
Type in all cases: physicochemical
[1] = Example 1: stability of bilberry extract anthocyanosides, 4 hours at 37° C., pH 7.0, with/without DHLA or GSH (HPLC)
Procedure: (0.048 mmol anthocyanosides expressed as cyanidin-3-O-glucoside) were added to a 100 ml flask and filled to volume with sodium phosphate buffer (5% [w/w], pH=7.0), and stirred until dissolution was complete. A 1 ml sample was taken immediately and acidified with formic acid to pH=1.0 and analyzed by HPLC for the content of anthocyanosides (Fresh Sample). The remaining solution was kept for 4 hours at 37° C. (water bath) with stirring. Thereafter another sample (Blank sample), representing unprotected degradation, was taken and acidified.
(0.048 mmol expressed as cyanidin-3-O-glucoside) were then added and the flask was filled to volume with sodium phosphate buffer (5% [w/w], pH=7.0) and kept for 4 hours at 37° C. (water bath) with stirring.
Quantitation: External standardization based on linear regression analysis. The response factors of all anthocyanosides separated is quantitified against cyanidin-3-O-glucoside.
Test solutions from incubation experiments (with/without cells and with/without stabilizing agents) were used for analysis after stabilization of anthocyanosides with formic acid. Samples were cleared by filtration prior to injection on to HPLC-system.

[2] = Example 9: stability of bilberry extract anthocyanosides, 4 hours at 37° C., pH 7.0, with/without L-cysteine
Procedure: Sample a) 60 mg bilberry extract [37% anthocyanosides] (0.048 mmol anthocyanosides expressed as cyanidin-3-O-glucoside) were added to a 100 ml flask with 60 ml sodium phosphate buffer (5% [w/w], pH=7.0), and stirred until dissolution was complete. A 1 ml sample was taken immediately and acidified with formic acid to pH=1.0 and analyzed by HPLC for the content of anthocyanosides (Fresh Sample). The remaining solution was kept for 4 hours at 37° C. (water bath) with stirring. Thereafter another sample (Blank sample), representing unprotected degradation, was taken and acidified.
Sample b) 20 mg L-cysteine […] were added to a 100 ml flask with 60 ml sodium phosphate buffer (5% [w/w], pH=7.0) and stirred until dissolution was complete. 60 mg bilberry extract [37% anthocyanosides] (0.048 mmol expressed as cyanidin-3-O-glucoside) were then added to the flask and stir to fully dissolve, then kept for 4 hours at 37° C. (water bath) with stirring.
After 4 hours, samples were taken and acidified immediately with formic acid to pH=1.0 and analyzed by HPLC for the content of anthocyanosides. Degradation is expressed as decrease in peak area of individual peaks (calculated as % left after 4 hours).
Samples were prepared as outlined above in the HPLC Analytical Method. Test stability samples were immediately acidified (to block degradation) and injected undiluted following the detailed description provided below.

[3] = Example 2: degradation over time of selected bilberry anthocyanosides at 37° C., pH 7.0, with/without GSH (HPLC); conditions: pH 7.0, 37° C.; for %-residual anthocyanosides (% left): 4.30 hours
Procedure: Sample a) 60 mg bilberry extract [37% anthocyanosides] (0.048 mmol expressed as cyanidin-3-O-glucoside) were added to a 100 ml, filled to volume with sodium phosphate buffer (5% [w/w], pH=7.0) and stirred until dissolution was complete. A 1 ml sample was immediately taken and acidified with formic acid to pH=1.0 and analyzed by HPLC for the content of anthocyanosides. The remaining solution was kept at 37° C. (water bath) with stirring and additional 1 ml samples (Blank Samples), representing unprotected degradation, were sampled every 15 minutes. The samples were analyzed for selected anthocyanosides by HPLC.
Sample b) 20 mg reduced L-glutathione (0.065 mmol) were added to a 100 ml flask with 60 ml sodium phosphate buffer (5% [w/w], pH=7.0) and stirred until dissolution was complete. 60 mg bilberry extract [37% anthocyanosides] (0.048 mmol expressed as cyanidin-3-O-glucoside) were added and the flask was filled to volume with sodium phosphate buffer (5% [w/w], pH=7.0) and kept at 37° C. (water bath) with stirring. Every 15 minutes, 1 ml samples were taken and analyzed for selected anthocyanosides by HPLC.
Samples were prepared as outlined below in HPLC Analytical Method. Test stability samples were immediately acidified (to block degradation) and injected undiluted following the detailed description provided below.
HPLC Analytical Method (Materials, Instruments and Methods): […]

[4] = Cyanidin-3-O-galactoside at pH 3.1 or 7.0 with/without DHLA, 25° C. over 3 days (HPLC)
Procedure: Cyanidn-3-O-Galactoside (0.001 molar solution) was dissolved at pH=3.1 or pH=7.0 each with/without DHLA (1.44 mmolar solution). Replicate incubations were followed at 25° C. over 3 days by HPLC.

[5] = 20 mg reduced L-glutathione, pH 7.0, 37° C., 4 hours
[6] = 30 mg dihydrolipoic acid, pH 7.0, 37° C., 4 hours
[7] = unprotected, pH 7.0, 37° C., 4 hours

OC[C@H]1O[C@@H](Oc2cc3c(O)cc(O)cc3[o+]c2-c2ccc(O)c(O)c2)[C@H](O)[C@@H](O)[C@H]1O [Cn-3O-Gal, Cyanidin-3-O-galactoside]
% left, GSH (4 hours) [1, 5]: 77.3%
Peak Area, GSH (4 hours) [1, 5]: 360.2
% left, DHLA (4 hours) [1, 6]: 64.5%
Peak Area, DHLA (4 hours) [1, 6]: 300.3
Peak Area, Fresh (0 hours) ([1]; bilberry extract 60 mg/100 ml sodium phosphate buffer pH 7.0, fresh sample): 465.8
% left, Blank (4 hours) [1, 7]: 41.0%
Peak Area, Blank (4 hours) [1, 7]: 191.1
Peak Area, Fresh solution ([2]; bilberry extract 60 mg in buffer pH 7.0, fresh sample): 465.8
% left, L-cysteine 20 mg ([2]; pH 7.0, 37° C., 4 hours): 77.3%
Peak Area, L-cysteine 20 mg ([2]; pH 7.0, 37° C., 4 hours): 360.2
% left, Blank [2, 7]: 41.0%
Peak Area, Blank [2, 7]: 191.1
Peak Area ([3]; Blank Sample, 1:15 h): 305.40
Peak Area ([3]; Blank Sample, 4:15 h): 300.50
Peak Area ([3]; Blank Sample, 4:30 h): 205.36
Peak Area ([3]; Blank sample, 0:00 h): 498.85
Peak Area ([3]; Blank sample, 0:15 h): 390.37
Peak Area ([3]; Blank sample, 0:30 h): 433.94
Peak Area ([3]; Blank sample, 0:45 h): 347.29
Peak Area ([3]; Blank sample, 1:00 h): 380.25
Peak Area ([3]; Blank sample, 1:45 h): 353.94
Peak Area ([3]; Blank sample, 2:00 h): 337.90
Peak Area ([3]; Blank sample, 2:15 h): 320.70
Peak Area ([3]; Blank sample, 2:30 h): 271.19
Peak Area ([3]; Blank sample, 2:45 h): 274.22
Peak Area ([3]; Blank sample, 3:00 h): 324.58
Peak Area ([3]; Blank sample, 3:15 h): 324.25
Peak Area ([3]; Blank sample, 3:30 h): 281.19
Peak Area ([3]; Blank sample, 4:00 h): 315.54
%-residual anthocyanosides (% left) ([3]; Blank): 41%
Peak Area ([3]; GSH Protected Sample (20 mg), 0:30 h): 470.61
Peak Area ([3]; GSH Protected Sample (20 mg), 1:30 h): 431.86
Peak Area ([3]; GSH Protected Sample (20 mg), 2:30 h): 390.23
Peak Area ([3]; GSH Protected Sample (20 mg), 3:30 h): 422.54
Peak Area ([3]; GSH Protected Sample (20 mg), 4:30 h): 420.37
Peak Area ([3]; GSH Protected Sample (20 mg), 4:45 h): 393.21
Peak Area ([3]; GSH protected sample (20 mg), 0:00 h): 508.09
Peak Area ([3]; GSH protected sample (20 mg), 0:15 h): 504.88
Peak Area ([3]; GSH protected sample (20 mg), 0:45 h): 425.89
Peak Area ([3]; GSH protected sample (20 mg), 1:00 h): 462.71
Peak Area ([3]; GSH protected sample (20 mg), 1:15 h): 452.17
Peak Area ([3]; GSH protected sample (20 mg), 1:45 h): 442.86
Peak Area ([3]; GSH protected sample (20 mg), 2:00 h): 436.19
Peak Area ([3]; GSH protected sample (20 mg), 2:15 h): 442.30
Peak Area ([3]; GSH protected sample (20 mg), 2:45 h): 422.32
Peak Area ([3]; GSH protected sample (20 mg), 3:00 h): 433.21
Peak Area ([3]; GSH protected sample (20 mg), 3:15 h): 425.54
Peak Area ([3]; GSH protected sample (20 mg), 3:45 h): 397.72
Peak Area ([3]; GSH protected sample (20 mg), 4:00 h): 446.42
Peak Area ([3]; GSH protected sample (20 mg), 4:15 h): 419.80
%-residual anthocyanosides (% left) ([3]; GSH-protected): 77%
%-residual anthocyanosides (% left) ([3]; GSH-protected, listed as cyanidin-3-O-galactose): 77%
recovered after 3 days ([4]; pH 3.1, 25° C., in presence of DHLA (1.44 mmolar)): 95%
recovered after 3 days ([4]; pH 3.1, 25° C., unprotected sample): 61%
recovered after 3 days ([4]; pH 7.0, 25° C., in presence of DHLA (1.44 mmolar)): about 47%
recovered after 3 days ([4]; pH 7.0, 25° C., unprotected sample): ~0%
